Measurements from patent US20250270170A1, “2,3-DIMETHOXY-5-METHYL-1,4-BENZOQUINONE ALKYL ALCOHOL DERIVATIVE AND USE THEREOF” (BEIJING ANJIANXI BIO-MEDICAL TECHNOLOGY CO., LTD., priority 2021, published 2025).
“And” between values parts separate entries of the source, which are not always exact repeats. Equal values may be shown once. Marks after values point to notes of the source that are not given here.

Legend:
[1] = test system: human non-small cell lung cancer A549 transplanted tumor; assay: Example 9: tumor growth in A549 transplanted tumor model; assay type: in vivo, nude mice
Excerpt: Human non-small cell lung cancer cells A549 were obtained from the Cell Bank of the Type Culture Collection Committee of Chinese Academy of Sciences (CAS, cryopreserved in liquid nitrogen in this assay). […] On D1 of the assay, the A549 cells in the logarithmic growth phase were collected, counted and resuspended in PBS, and the cell concentration was adjusted to 8×10^7 cells/mL. The cells were pipetted with a pipette to disperse them evenly, and the cells were put into a 50-mL centrifuge tube, which was placed in an ice box. A 1-mL syringe was used to draw the cell suspension, which was injected subcutaneously into the axilla of the front right limb of a nude mouse. Each animal was inoculated with 100 μL (8×10^6 cells/mouse) to establish an A549 transplanted tumor model in nude mice. After the inoculation, the animal status and tumor growth were regularly observed. On D18, the tumor diameter was measured using an electronic vernier caliper. The data were input into an Excel spreadsheet to calculate the tumor volume. Tumor-bearing mice in good health and with similar tumor volumes (101 to 156 mm^3) were selected and divided into groups using randomized block method. After the start of the assay, the tumor diameter was measured regularly, the tumor volume was calculated, and the animal body weight was also weighed and recorded. On the last day of the assay, CO2 inhalation anesthesia was used on the animals 1 hour after the administration (R01). Blood was collected through the heart, and a part of the whole blood was added with EDTA-K2 for anticoagulation. The plasma was separated by centrifugation at 4° C. and 1500 g for 10 minutes. The plasma was collected, and stored in a −40° C. to −20° C. freezer (if necessary, it can be used for the determination of the plasma drug concentration). No anticoagulant was added to the other part of the whole blood, and the serum was separated by centrifugation after the blood coagulated, which was used for the detection of blood urea nitrogen. After the blood collection, the tumor tissue was collected, weighed and photographed. Then, the tumor was divided into two parts, quickly cryopreserved by liquid nitrogen, and transferred to a −90° C. to −60° C. freezer for storage. […] [table]

[2] = test system: cisplatin-induced acute kidney damage in mice; assay: Example 11: serum creatinine (Cre) in cisplatin-induced acute kidney damage model; assay type: in vivo, C57BL/6J mice; conditions: for Serum creatinine (Cre) level after the assay, x (mean): group mean; for Serum creatinine (Cre) level after the assay, x (mean) / Serum creatinine (Cre) level after the assay: cisplatin model; for Serum creatinine (Cre) level after the assay: individual animals No. 1-7
Description: 42 male C57BL/6J mice (age: 6 to 8 weeks, body weight 18-20 g, certificate number: 11400700238365) were purchased from Si Pei Fu (Beijing) Biotechnology Co., Ltd., and raised in an SPF-grade animal room of the Institute of Materia Medica, Chinese Academy of Medical Sciences, at a temperature of 20 to 25° C., a relative humidity of 40% to 70%, and a cycle of 12 hours of light and 12 hours of dark. The animals had free access to water and food. After 3 days of normal feeding, mice with good physical conditions after the veterinary examination were selected for this assay. Before grouping, a marker was used to mark on the base of the animals' tail. After grouping, each animal was marked with an ear cutout (7 mice in each group).
Assay animals: 42 7-week-old male C57 mice were used for animal testing after an adaptive feeding.
Group 1: blank control group;
The preparation of the R01 formulation administration test solution was the same as that in Example 5: an appropriate amount of the R01 formulation was weighed according to the three dosages set in the assay, respectively, and an appropriate volume of 0.5% CMC-Na aqueous solution was added. The mixture was vortexed and sonicated until mixed evenly, to give the administration test solutions with concentrations of […], respectively, which were ready for use.
Animal testing period: 7 days (excluding adaptive feeding), hereinafter referred to as: D1-D7.
1. The first group was a solvent control group: N=7, all mice were males (the same below); • a) 0.5% solution of sodium carboxymethyl cellulose was gavagely administered from D1 to D6 (twice a day for each animal, with an interval of 8 hours between the morning and the afternoon). • b) Physiological saline was intraperitoneally injected in one-time on D4. • c) On D7, blood was collected from the orbit for euthanasia (300 ul of serum was extracted), the left kidney was fixed in formaldehyde, and the right kidney was preserved in liquid nitrogen (WB study may be carried out).
1) The concentrations of urea nitrogen and creatinine in peripheral blood serum were tested.
The body weight of the animals when being grouped for administration in each group was recorded. The body weight and the kidney weight at the end of the assay were also recorded, and the kidney coefficient was calculated. The creatinine and urea nitrogen values in the blood samples sent for testing were recorded. The kidneys were stained with HE and PAS, and the slides were scanned. A report was issued after the pathological analysis.
The assay data were calculated and processed statistically using Microsoft Office Excel 2007 software. Unless otherwise specified, the data were expressed as mean±standard error (Mean±SE), and t-test was used for comparison between two groups.

[3] = D21, DDP 5/7/7/7 mg/kg i.p. QW×4
[4] = D25, DDP 5/7/7/7 mg/kg i.p. QW×4
[5] = D28, DDP 5/7/7/7 mg/kg i.p. QW×4
[6] = D32, DDP 5/7/7/7 mg/kg i.p. QW×4
[7] = D35, DDP 5/7/7/7 mg/kg i.p. QW×4
[8] = D39, DDP 5/7/7/7 mg/kg i.p. QW×4
[9] = D42, DDP 5/7/7/7 mg/kg i.p. QW×4
[10] = D46, DDP 5/7/7/7 mg/kg i.p. QW×4

N.N.[Cl][Pt][Cl] [DDP, cisplatin]
Mean tumor volume ([1]; D18, DDP 4 mg/kg i.p. QW×4): 127 ± 6 mm^3
Mean tumor volume ([1]; D18, DDP 5/7/7/7 mg/kg i.p. QW×4): 130 ± 5 mm^3
Mean tumor volume ([1]; D21, DDP 4 mg/kg i.p. QW×4): 210 ± 10 mm^3
tumor growth inhibition rate (TGI) ([1]; D21, DDP 4 mg/kg i.p. QW×4): (−1.0%)
Mean tumor volume [1, 3]: 208 ± 11 mm^3
tumor growth inhibition rate (TGI) [1, 3]: (4.7%)
Mean tumor volume ([1]; D25, DDP 4 mg/kg i.p. QW×4): 297 ± 20** mm^3
tumor growth inhibition rate (TGI) ([1]; D25, DDP 4 mg/kg i.p. QW×4): (37%)
Mean tumor volume [1, 4]: 308 ± 23** mm^3
tumor growth inhibition rate (TGI) [1, 4]: (34%)
Mean tumor volume ([1]; D28, DDP 4 mg/kg i.p. QW×4): 418 ± 28** mm^3
tumor growth inhibition rate (TGI) ([1]; D28, DDP 4 mg/kg i.p. QW×4): (29%)
Mean tumor volume [1, 5]: 428 ± 30** mm^3
tumor growth inhibition rate (TGI) [1, 5]: (27%)
Mean tumor volume ([1]; D32, DDP 4 mg/kg i.p. QW×4): 561 ± 35** mm^3
tumor growth inhibition rate (TGI) ([1]; D32, DDP 4 mg/kg i.p. QW×4): (27%)
Mean tumor volume [1, 6]: 562 ± 41** mm^3
tumor growth inhibition rate (TGI) [1, 6]: (28%)
Mean tumor volume ([1]; D35, DDP 4 mg/kg i.p. QW×4): 670 ± 56** mm^3
tumor growth inhibition rate (TGI) ([1]; D35, DDP 4 mg/kg i.p. QW×4): (26%)
Mean tumor volume [1, 7]: 696 ± 52* mm^3
tumor growth inhibition rate (TGI) [1, 7]: (22%)
Mean tumor volume ([1]; D39, DDP 4 mg/kg i.p. QW×4): 914 ± 89** mm^3
tumor growth inhibition rate (TGI) ([1]; D39, DDP 4 mg/kg i.p. QW×4): (30%)
Mean tumor volume [1, 8]: 892 ± 86** mm^3
tumor growth inhibition rate (TGI) [1, 8]: (33%)
Mean tumor volume ([1]; D42, DDP 4 mg/kg i.p. QW×4): 1110 ± 119 mm^3
tumor growth inhibition rate (TGI) ([1]; D42, DDP 4 mg/kg i.p. QW×4): (23%)
Mean tumor volume [1, 9]: 1099 ± 85* mm^3
tumor growth inhibition rate (TGI) [1, 9]: (24%)
Mean tumor volume ([1]; D46, DDP 4 mg/kg i.p. QW×4): 1333 ± 176 mm^3
tumor growth inhibition rate (TGI) ([1]; D46, DDP 4 mg/kg i.p. QW×4): (20%)
Mean tumor volume [1, 10]: 1236 ± 32* mm^3
tumor growth inhibition rate (TGI) [1, 10]: (27%)
effect on growth of the A549 transplanted tumor (summary) ([1]; DDP 4 or 5/7/7/7 mg/kg QW, R01 formulation 18 or 36 mg/kg BID, combinations 18+5/7/7/7 and 36+4): no significant effect

COC1=C(OC)C(=O)C(CCCCCCCCCCOC(=O)Cc2c(C)n(C(=O)c3ccc(Cl)cc3)c3ccc(OC)cc23)=C(C)C1=O [compound of formula (I)]
serum creatinine value ([2]; cisplatin 10 mg/kg alone (vs blank, P<0.01) or with amifostine 50 mg/kg i.p. / R01 6, 18, 36 mg/kg bid): equivalent to that of the blank control group
Serum creatinine (Cre) level after the assay, x (mean) ([2]; R01 6 mg/kg): 18.4 mg/dL
Serum creatinine (Cre) level after the assay, x (mean) ([2]; R01 18 mg/kg): 15.4 mg/dL
Serum creatinine (Cre) level after the assay, x (mean) ([2]; R01 36 mg/kg): 15.3 mg/dL
Serum creatinine (Cre) level after the assay ([2]; R01 6 mg/kg, listed as R01, 6 mg/kg): 20 mg/dl (2×) and 23 mg/dl and 26 mg/dl and 17 mg/dl and 18 mg/dl and 5 mg/dl
Serum creatinine (Cre) level after the assay ([2]; R01 18 mg/kg, listed as R01, 18 mg/kg): 15 mg/dl (2×) and 12 mg/dl (2×) and 17 mg/dl and 16 mg/dl and 21 mg/dl
Serum creatinine (Cre) level after the assay ([2]; R01 36 mg/kg, listed as R01, 36 mg/kg): 15 mg/dl (3×) and 13 mg/dl and 17 mg/dl and 16 mg/dl (2×)
